Laboratory results published in PubChem BioAssay (NCI).
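Cultured in 96-well plates, cells were exposed to test compound for 48 hours across five concentrations. TGI marks complete inhibition of growth.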

How the values were obtained:
Experiment in all cases: DTP human tumour cell line panel, 48 h
786-0 renal = test system: 786-0 renal
A498 renal = test system: A498 renal
A549 NSCLC = test system: A549 NSCLC
ACHN renal = test system: ACHN renal
BT-549 breast = test system: BT-549 breast
CCRF-CEM leukemia = test system: CCRF-CEM leukemia
COLO 205 colon = test system: COLO 205 colon
DU-145 prostate = test system: DU-145 prostate
EKVX NSCLC = test system: EKVX NSCLC
HCC-2998 colon = test system: HCC-2998 colon
HCT-116 colon = test system: HCT-116 colon
HCT-15 colon = test system: HCT-15 colon
HL-60(TB) leukemia = test system: HL-60(TB) leukemia
HOP-62 NSCLC = test system: HOP-62 NSCLC
HS 578T breast = test system: HS 578T breast
HT29 colon = test system: HT29 colon
K-562 leukemia = test system: K-562 leukemia
KM12 colon = test system: KM12 colon
LOX IMVI melanoma = test system: LOX IMVI melanoma
M14 melanoma = test system: M14 melanoma
MALME-3M melanoma = test system: MALME-3M melanoma
MCF7 breast = test system: MCF7 breast
MDA-MB-231 breast = test system: MDA-MB-231 breast
MDA-MB-435 = test system: MDA-MB-435
MDA-N = test system: MDA-N
MOLT-4 leukemia = test system: MOLT-4 leukemia
NCI-H226 lung = test system: NCI-H226 lung
NCI-H23 lung = test system: NCI-H23 lung
NCI-H460 lung = test system: NCI-H460 lung
NCI-H522 lung = test system: NCI-H522 lung
NCI/ADR-RES ovarian = test system: NCI/ADR-RES ovarian
OVCAR-3 ovarian = test system: OVCAR-3 ovarian
OVCAR-4 ovarian = test system: OVCAR-4 ovarian
OVCAR-5 ovarian = test system: OVCAR-5 ovarian
OVCAR-8 ovarian = test system: OVCAR-8 ovarian
PC-3 prostate = test system: PC-3 prostate
RPMI-8226 leukemia = test system: RPMI-8226 leukemia
SF-268 CNS = test system: SF-268 CNS
SF-295 CNS = test system: SF-295 CNS
SF-539 CNS = test system: SF-539 CNS
SK-MEL-2 melanoma = test system: SK-MEL-2 melanoma
SK-MEL-28 melanoma = test system: SK-MEL-28 melanoma
SN12C renal = test system: SN12C renal
SNB-19 CNS = test system: SNB-19 CNS
SNB-75 CNS = test system: SNB-75 CNS
SR leukemia = test system: SR leukemia
SW-620 colon = test system: SW-620 colon
T-47D breast = test system: T-47D breast
TK-10 renal = test system: TK-10 renal
U251 CNS = test system: U251 CNS
UACC-257 melanoma = test system: UACC-257 melanoma
UO-31 renal = test system: UO-31 renal
CAKI-1 renal = test system: CAKI-1 renal
IGROV1 ovarian = test system: IGROV1 ovarian
RXF 393 renal = test system: RXF 393 renal
SK-MEL-5 melanoma = test system: SK-MEL-5 melanoma
SK-OV-3 ovarian = test system: SK-OV-3 ovarian
UACC-62 melanoma = test system: UACC-62 melanoma

CC(=O)N1c2ccccc2C2=NN=C(N(C)C)SC21 (centres undefined)
TGI (786-0 renal): 12.5 µM
TGI (A498 renal): 11.7 µM
TGI (A549 NSCLC): 11.8 µM
TGI (ACHN renal): 10.4 µM
TGI (BT-549 breast): 24.2 µM
TGI (CCRF-CEM leukemia): 5.31 µM
TGI (COLO 205 colon): 12.9 µM
TGI (DU-145 prostate): 7.45 µM
TGI (EKVX NSCLC): 12.8 µM
TGI (HCC-2998 colon): 12.5 µM
TGI (HCT-116 colon): 10.1 µM
TGI (HCT-15 colon): 15.6 µM
TGI (HL-60(TB) leukemia): 5.07 µM
TGI (HOP-62 NSCLC): 23.4 µM
TGI (HS 578T breast): 52.4 µM
TGI (HT29 colon): 20.5 µM
TGI (K-562 leukemia): 18.8 µM
TGI (KM12 colon): 11.2 µM
TGI (LOX IMVI melanoma): 14.1 µM
TGI (M14 melanoma): 7.97 µM
TGI (MALME-3M melanoma): 12.9 µM
TGI (MCF7 breast): 14.9 µM
TGI (MDA-MB-231 breast): 11 µM
TGI (MDA-MB-435): 31.3 µM
TGI (MDA-N): 19.7 µM
TGI (MOLT-4 leukemia): > 100 µM
TGI (NCI-H226 lung): 19.5 µM
TGI (NCI-H23 lung): 19.3 µM
TGI (NCI-H460 lung): 13.3 µM
TGI (NCI-H522 lung): 6.68 µM
TGI (NCI/ADR-RES ovarian): 10.4 µM
TGI (OVCAR-3 ovarian): 9.46 µM
TGI (OVCAR-4 ovarian): 29.8 µM
TGI (OVCAR-5 ovarian): 18.1 µM
TGI (OVCAR-8 ovarian): 12.1 µM
TGI (PC-3 prostate): 18 µM
TGI (RPMI-8226 leukemia): 81.3 µM
TGI (SF-268 CNS): 16 µM
TGI (SF-295 CNS): 8.16 µM
TGI (SF-539 CNS): 18.3 µM
TGI (SK-MEL-2 melanoma): 6.36 µM
TGI (SK-MEL-28 melanoma): 15.3 µM
TGI (SN12C renal): 6.93 µM
TGI (SNB-19 CNS): 23.5 µM
TGI (SNB-75 CNS): 26.4 µM
TGI (SR leukemia): 21.2 µM
TGI (SW-620 colon): 20 µM
TGI (T-47D breast): 14.9 µM
TGI (TK-10 renal): 21 µM
TGI (U251 CNS): 10.8 µM
TGI (UACC-257 melanoma): 12.7 µM
TGI (UO-31 renal): 9.89 µM

COc1ccc(-c2c(C#N)c(N)n(C3OCC(O)C(O)C3O)c(=S)c2C#N)cc1 (centres undefined)
TGI (786-0 renal): > 100 µM
TGI (A498 renal): > 100 µM
TGI (A549 NSCLC): > 100 µM
TGI (ACHN renal): > 100 µM
TGI (BT-549 breast): > 100 µM
TGI (CAKI-1 renal): > 100 µM
TGI (CCRF-CEM leukemia): > 100 µM
TGI (DU-145 prostate): > 100 µM
TGI (HCC-2998 colon): > 100 µM
TGI (HCT-15 colon): > 100 µM
TGI (HL-60(TB) leukemia): > 100 µM
TGI (HOP-62 NSCLC): > 100 µM
TGI (HS 578T breast): > 100 µM
TGI (HT29 colon): > 100 µM
TGI (IGROV1 ovarian): > 100 µM
TGI (K-562 leukemia): > 100 µM
TGI (KM12 colon): > 100 µM
TGI (LOX IMVI melanoma): > 100 µM
TGI (M14 melanoma): > 100 µM
TGI (MALME-3M melanoma): > 100 µM
TGI (MCF7 breast): > 100 µM
TGI (MDA-MB-231 breast): > 100 µM
TGI (MDA-MB-435): > 100 µM
TGI (MDA-N): > 100 µM
TGI (MOLT-4 leukemia): > 100 µM
TGI (NCI-H226 lung): > 100 µM
TGI (NCI-H23 lung): > 100 µM
TGI (NCI-H460 lung): > 100 µM
TGI (NCI-H522 lung): > 100 µM
TGI (NCI/ADR-RES ovarian): > 100 µM
TGI (OVCAR-3 ovarian): > 100 µM
TGI (OVCAR-5 ovarian): > 100 µM
TGI (OVCAR-8 ovarian): > 100 µM
TGI (PC-3 prostate): > 100 µM
TGI (RPMI-8226 leukemia): > 100 µM
TGI (RXF 393 renal): > 100 µM
TGI (SF-268 CNS): > 100 µM
TGI (SF-295 CNS): > 100 µM
TGI (SF-539 CNS): > 100 µM
TGI (SK-MEL-2 melanoma): > 100 µM
TGI (SK-MEL-28 melanoma): > 100 µM
TGI (SK-MEL-5 melanoma): > 100 µM
TGI (SK-OV-3 ovarian): > 100 µM
TGI (SN12C renal): > 100 µM
TGI (SNB-19 CNS): > 100 µM
TGI (SNB-75 CNS): > 100 µM
TGI (SR leukemia): > 100 µM
TGI (SW-620 colon): > 100 µM
TGI (T-47D breast): > 100 µM
TGI (TK-10 renal): > 100 µM
TGI (UACC-62 melanoma): > 100 µM
TGI (UO-31 renal): > 100 µM
